In publication PMC11129196 (Journal of Medicinal Chemistry, 2024):
In brackets after ≈: the same amount, converted by molar mass. Entries after “also recorded” stand apart in the source; their conditions may differ.

Columns and labels:
PDE-3 = conditions: cited from earlier work
reconstituted sarcomeres = assay: sarcomere component swap experiment; assay type: biochemical, bovine, rabbit; conditions: four myosin S1/thin filament combinations; 1 and 2 at 40 μM
fast skeletal myofibrils = fast skeletal myofibrils (Oryctolagus cuniculus, UniProt P02586+P02643); assay: fast skeletal myofibril ATPase assay; assay type: biochemical, rabbit
smooth muscle myosin = smooth muscle myosin (Gallus gallus, UniProt P10587); assay: smooth muscle myosin ATPase assay; assay type: biochemical, chicken
[1] = system: adult rat ventricular myocytes; assay: rat cardiomyocyte contractility assay; assay type: cell-based; conditions: 10 μM, 1 Hz, 37 °C, vs untreated cells
[2] = system: adult rat ventricular myocytes; assay: cardiomyocyte calcium transient experiments; assay type: cell-based; conditions: 10 μM, Fura dye
slow skeletal myofibrils = slow skeletal myofibrils (Bos taurus, UniProt P63315); assay: slow skeletal myofibril ATPase assay; assay type: biochemical, bovine
[3] = solubility in the PDE-3 buffer solution; assay type: physicochemical
phosphodiesterase 3a = phosphodiesterase 3a (Homo sapiens, UniProt Q14432); assay: PDE-3 inhibition assay; assay type: biochemical
[4] = rat pharmacokinetic assessment, IV; assay type: in vivo; conditions: dosed IV in rats
solubility assessment = assay type: physicochemical; conditions: monopotassium phosphate JP2 buffer, pH 6.8

Chain of fast skeletal myofibrils (P02586 whole entry): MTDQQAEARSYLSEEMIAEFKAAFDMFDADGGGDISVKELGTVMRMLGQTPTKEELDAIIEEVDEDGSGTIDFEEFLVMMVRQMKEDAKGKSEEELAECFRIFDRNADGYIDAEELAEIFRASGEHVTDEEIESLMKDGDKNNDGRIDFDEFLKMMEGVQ
Chain of fast skeletal myofibrils (P02643 whole entry): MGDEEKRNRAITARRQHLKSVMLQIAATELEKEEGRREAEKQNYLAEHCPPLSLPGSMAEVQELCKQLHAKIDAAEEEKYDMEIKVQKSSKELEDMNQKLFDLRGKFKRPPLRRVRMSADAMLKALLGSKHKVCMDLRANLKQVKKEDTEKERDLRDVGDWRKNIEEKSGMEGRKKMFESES
Chain of fast skeletal myofibrils (P02641 whole entry partner): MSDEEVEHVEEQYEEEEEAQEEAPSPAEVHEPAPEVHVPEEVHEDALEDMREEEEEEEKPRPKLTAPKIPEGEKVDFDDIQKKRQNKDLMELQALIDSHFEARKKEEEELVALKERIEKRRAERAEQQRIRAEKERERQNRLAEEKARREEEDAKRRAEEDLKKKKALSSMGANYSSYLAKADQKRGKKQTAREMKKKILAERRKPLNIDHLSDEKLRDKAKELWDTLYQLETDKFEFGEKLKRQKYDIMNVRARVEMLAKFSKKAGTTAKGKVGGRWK
Chain of smooth muscle myosin (P10587 whole entry): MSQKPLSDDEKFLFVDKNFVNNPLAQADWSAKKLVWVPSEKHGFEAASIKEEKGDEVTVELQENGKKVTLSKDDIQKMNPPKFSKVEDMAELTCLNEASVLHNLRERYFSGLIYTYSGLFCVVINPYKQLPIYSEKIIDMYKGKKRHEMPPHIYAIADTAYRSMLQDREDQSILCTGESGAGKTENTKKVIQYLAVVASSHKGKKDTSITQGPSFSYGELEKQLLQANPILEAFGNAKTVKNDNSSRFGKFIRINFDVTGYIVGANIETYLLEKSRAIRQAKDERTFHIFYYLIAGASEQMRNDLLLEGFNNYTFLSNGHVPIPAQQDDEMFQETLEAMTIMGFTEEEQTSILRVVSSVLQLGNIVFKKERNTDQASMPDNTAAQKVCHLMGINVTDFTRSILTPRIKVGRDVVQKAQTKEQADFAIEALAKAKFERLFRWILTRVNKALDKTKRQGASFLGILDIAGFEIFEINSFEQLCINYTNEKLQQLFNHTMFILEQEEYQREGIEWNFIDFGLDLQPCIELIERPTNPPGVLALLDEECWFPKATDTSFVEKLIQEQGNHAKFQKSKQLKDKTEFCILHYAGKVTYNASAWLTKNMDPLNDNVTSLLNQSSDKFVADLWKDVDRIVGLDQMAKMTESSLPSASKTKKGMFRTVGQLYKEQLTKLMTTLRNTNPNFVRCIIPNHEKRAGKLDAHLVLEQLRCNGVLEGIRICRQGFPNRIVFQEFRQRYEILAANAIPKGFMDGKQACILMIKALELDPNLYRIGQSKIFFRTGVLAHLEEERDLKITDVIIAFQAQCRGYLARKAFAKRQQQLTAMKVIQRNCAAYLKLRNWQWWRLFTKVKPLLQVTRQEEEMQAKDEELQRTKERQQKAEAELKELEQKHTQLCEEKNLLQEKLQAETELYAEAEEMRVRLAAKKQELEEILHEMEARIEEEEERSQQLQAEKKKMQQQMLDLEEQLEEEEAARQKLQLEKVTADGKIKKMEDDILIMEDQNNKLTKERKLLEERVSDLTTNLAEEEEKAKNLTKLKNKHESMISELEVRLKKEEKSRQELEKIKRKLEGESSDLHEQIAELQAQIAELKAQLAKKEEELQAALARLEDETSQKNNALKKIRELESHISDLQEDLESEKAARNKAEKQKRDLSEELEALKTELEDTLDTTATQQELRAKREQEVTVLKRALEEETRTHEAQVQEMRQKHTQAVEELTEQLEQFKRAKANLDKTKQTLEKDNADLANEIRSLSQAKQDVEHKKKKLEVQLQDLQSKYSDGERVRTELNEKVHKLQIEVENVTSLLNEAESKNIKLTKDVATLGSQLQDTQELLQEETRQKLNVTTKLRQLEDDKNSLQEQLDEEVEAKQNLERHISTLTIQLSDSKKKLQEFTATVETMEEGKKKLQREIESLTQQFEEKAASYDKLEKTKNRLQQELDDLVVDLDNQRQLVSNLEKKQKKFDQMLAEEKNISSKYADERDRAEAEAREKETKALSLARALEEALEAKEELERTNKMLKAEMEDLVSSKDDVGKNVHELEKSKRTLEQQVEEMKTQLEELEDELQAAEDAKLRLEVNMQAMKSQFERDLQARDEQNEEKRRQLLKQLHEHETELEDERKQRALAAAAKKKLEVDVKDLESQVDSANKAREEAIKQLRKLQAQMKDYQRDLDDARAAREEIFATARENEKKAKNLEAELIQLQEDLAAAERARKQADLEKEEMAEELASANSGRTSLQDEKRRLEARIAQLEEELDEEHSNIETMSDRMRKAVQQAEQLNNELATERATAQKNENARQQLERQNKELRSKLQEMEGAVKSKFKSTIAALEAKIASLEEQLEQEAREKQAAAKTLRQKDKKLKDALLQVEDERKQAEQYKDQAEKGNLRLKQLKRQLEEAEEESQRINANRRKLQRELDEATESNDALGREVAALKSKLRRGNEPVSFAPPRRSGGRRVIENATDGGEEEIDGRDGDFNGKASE
Chain of smooth muscle myosin (P02607 whole entry partner): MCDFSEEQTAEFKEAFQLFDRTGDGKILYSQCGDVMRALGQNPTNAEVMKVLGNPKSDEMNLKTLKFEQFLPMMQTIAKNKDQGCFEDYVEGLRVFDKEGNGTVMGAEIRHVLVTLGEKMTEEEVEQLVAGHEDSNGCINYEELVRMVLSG
Chain of smooth muscle myosin (P02612 whole entry partner): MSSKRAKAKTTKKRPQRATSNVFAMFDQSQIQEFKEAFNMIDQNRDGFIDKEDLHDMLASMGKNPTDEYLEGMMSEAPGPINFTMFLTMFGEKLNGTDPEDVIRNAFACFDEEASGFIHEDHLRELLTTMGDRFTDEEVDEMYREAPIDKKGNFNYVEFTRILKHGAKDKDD
Chain of phosphodiesterase 3a (Q14432 whole entry): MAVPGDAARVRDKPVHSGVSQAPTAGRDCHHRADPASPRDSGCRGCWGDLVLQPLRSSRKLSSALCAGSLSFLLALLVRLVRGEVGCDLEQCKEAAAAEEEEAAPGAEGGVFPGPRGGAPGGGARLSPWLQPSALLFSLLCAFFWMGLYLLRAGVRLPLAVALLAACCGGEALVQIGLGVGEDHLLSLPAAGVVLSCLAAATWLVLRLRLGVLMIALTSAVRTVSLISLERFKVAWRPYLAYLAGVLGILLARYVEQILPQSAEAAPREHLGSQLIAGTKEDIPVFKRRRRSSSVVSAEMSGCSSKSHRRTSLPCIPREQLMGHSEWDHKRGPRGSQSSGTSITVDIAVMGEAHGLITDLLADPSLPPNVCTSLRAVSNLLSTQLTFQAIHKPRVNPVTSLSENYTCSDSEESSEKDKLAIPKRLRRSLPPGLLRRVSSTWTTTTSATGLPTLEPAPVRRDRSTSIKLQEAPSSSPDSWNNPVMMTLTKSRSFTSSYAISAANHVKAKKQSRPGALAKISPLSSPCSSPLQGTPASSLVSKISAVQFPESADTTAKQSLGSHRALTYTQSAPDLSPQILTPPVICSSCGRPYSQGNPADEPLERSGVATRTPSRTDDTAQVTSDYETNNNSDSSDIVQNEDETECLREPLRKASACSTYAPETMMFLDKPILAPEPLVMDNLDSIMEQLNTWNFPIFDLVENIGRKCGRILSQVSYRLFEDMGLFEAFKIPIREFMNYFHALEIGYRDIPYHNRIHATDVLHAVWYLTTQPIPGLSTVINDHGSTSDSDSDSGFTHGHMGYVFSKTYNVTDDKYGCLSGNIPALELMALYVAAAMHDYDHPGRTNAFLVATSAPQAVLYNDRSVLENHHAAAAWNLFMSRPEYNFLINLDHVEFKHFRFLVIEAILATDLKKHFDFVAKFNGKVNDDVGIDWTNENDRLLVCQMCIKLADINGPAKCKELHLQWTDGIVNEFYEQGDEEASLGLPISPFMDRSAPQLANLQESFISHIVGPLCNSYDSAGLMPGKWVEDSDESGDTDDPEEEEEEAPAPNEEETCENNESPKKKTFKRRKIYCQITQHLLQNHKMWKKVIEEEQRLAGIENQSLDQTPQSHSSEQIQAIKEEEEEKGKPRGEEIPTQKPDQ

C[C@@H]1CC(=O)NN=C1c1ccc(NN=C(C#N)C#N)cc1 [Levosimendan]
PDE-3 inhibition in words (PDE-3): single digit nanomolar PDE-3 inhibition

O=c1[nH]c2ccc(S(=O)(=O)Nc3ccc(-c4ccccc4)cc3)cc2[nH]1 [compound 1]
activation of reconstituted sarcomeres in words (reconstituted sarcomeres): Only the reconstituted sarcomeres that contain the cardiac thin filament showed activation

O=c1[nH]c(=O)c2cc(S(=O)(=O)Nc3ccc(N4CCCCCC4)cc3)ccc2[nH]1 [compound 2]
fast skeletal myofibril activity in words (fast skeletal myofibrils): inactive; also recorded: did not activate | activation of reconstituted sarcomeres in words (reconstituted sarcomeres): Only the reconstituted sarcomeres that contain the cardiac thin filament showed activation | smooth muscle myosin activity in words (smooth muscle myosin): inactive; also recorded: did not activate | myocyte fractional shortening in words [1]: significantly increased myocyte fractional shortening | intracellular calcium concentrations in words [2]: without changing intracellular calcium concentrations

O=c1[nH]c(=O)c2cc(S(=O)(=O)Nc3ccc(-c4ccccc4)cc3)ccc2[nH]1 [compound 3]
fast skeletal myofibril activity in words (fast skeletal myofibrils): did not activate | smooth muscle myosin activity in words (smooth muscle myosin): did not activate | slow skeletal myofibril AC40 (slow skeletal myofibrils): <0.1 µM

Cn1c(=O)[nH]c(=O)c2cc(S(=O)(=O)Nc3ccc(-c4ccccc4)cc3)ccc21 [compound 5]
solubility [3]: 1.2 µM (≈ 0.489 µg/mL)

C[C@@H]1C[C@@H](C)CN(c2ccc(NS(=O)(=O)c3ccc4c(c3)c(=O)[nH]c(=O)n4C)cn2)C1 [compound 13, N-(6-((3R,5R)-3,5-Dimethylpiperidin-1-yl)pyridin-3-yl)-1-methyl-2,4-dioxo-1,2,3,4-tetrahydroquinazoline-6-sulfonamide]
IC50 (phosphodiesterase 3a): 7 µM

CNc1cc2nc(C)[nH]c(=O)c2cc1S(=O)(=O)Nc1ccc(N2C[C@H](C)C[C@@H](C)C2)nc1 [compound 17, N-(6-((3R,5R)-3,5-Dimethylpiperidin-1-yl)pyridin-3-yl)-2-methyl-7-(methylamino)-4-oxo-3,4-dihydroquinazoline-6-sulfonamide]
clearance relative to hepatic blood flow [4]: < 25 % of hepatic blood flow (Qh) | solubility at 12 h (solubility assessment): 6.7 µM (≈ 3.06 µg/mL)
